We go through eight molecules from patent EP0384661A1, “Antialgal compositions comprising diphenylethers” (ROHM AND HAAS COMPANY, priority 1989, dated 1990).

Each structure is given as a SMILES string. Converted amounts (≈) assume the structure as drawn. Counter-ions that a name gives are not always drawn.

For one experiment, the system named is Anabaena flos-aquae. Kind of experiment: MIC microtiter plate assay. Type of experiment: cell-based. The note with it: Dolichospermum flos-aquae; growth/no-growth after 14 or 21 days, 25°C. On the procedure: (§1) Efficacy studies were conducted on a variety of microorganisms with oxyfluorfen. Minimum Inhibitory Concentration (MIC) studies were conducted using microtiter plate assays. In this method, a wide range of concentrations was tested by preparing two-fold serial dilutions of the compound in 96-well plastic microtiter plates. All liquid media transfers were performed with calibrated single or multichannel digital pipetters. Stock solutions of compounds were prepared in appropriate solvents and dispensed to the growth medium. All subsequent dilutions in plates were made using the desired growth medium. The total volume of liquid in each well was 100 ul. The pure cultures used in this study were obtained from the Culture Collection of Algae at the University of Texas at Austin (UTEX). The mixed culture of algae was obtained from a cooling tower biofilm and maintained in liquid medium; microorganisms used as inocula were cultured in shaken liquid culture (50 ml of Bristol's medium, pH 7.0, 25°C); Journal of Phycology, 23s: 1-47, 1987) for one week or as needed to attain a desired cell mass. The cultures were then inoculated into the microtiter plates using a 96-prong multiple inoculator (5 µl inoculum); each well received a standard suspension of biomass (5% inoculum). Plates were incubated at 25°C under constant illumination (500 ft candles). The extent of growth was determined under low magnification with the aid of a microtiter plate reader. The growth in each cell was monitored periodically and growth/no-growth was recorded after 14 or 21 days. […] Following the evaluation procedure of Example 3, compounds according to the following structural formula, with X and Y substituents according to Table 4A, were evaluated with the results shown in Table 4B. [drawing 4]

Experiment [1] relates to Mixed Cooling Tower Culture. The experiment in a line: MIC microtiter plate assay. Type of experiment: cell-based, mixed culture of algae. The note with it: growth/no-growth after 14 or 21 days, 25°C. On the procedure:
as §1

The test system of experiment [2] is 10 differents types of algae. The following applies: all levels tested; 10 types of algae; cited from earlier work.

The term MIC denotes the lowest concentration that inhibits growth of the organism. Read a low MIC as inhibition by little substance. Turning to `CC(=O)Oc1cc(Oc2ccc(C(F)(F)F)cc2Cl)ccc1[N+](=O)[O-]` [4C comparative], the MIC against Anabaena flos-aquae was found to be 12.5 µg/mL (≈ 33.3 µM); in experiment [1] it was 0.25 µg/mL (≈ 0.665 µM).

As to `CCOC(=O)C(C)Oc1cc(Oc2ccc(C(F)(F)F)cc2Cl)ccc1[N+](=O)[O-]` (stereo not shown) [Compound 4G], it took 0.25 µg/mL (≈ 0.576 µM) to inhibit growth in experiment [1] (MIC). Turning to `O=C(O)c1cc(Oc2ccc(C(F)(F)F)cc2Cl)ccc1[N+](=O)[O-]` [acifluorfen, 2-chloro-4-trifluoromethylphenyl-3′-carboxy-4′-nitrophenylether, sodium salt], the effectiveness on algae result in experiment [2] is reported as “ineffective at all levels tested”.

For `Oc1cccc(Oc2ccc(C(F)(F)F)cc2Cl)c1` [4A comparative], the figures for the MIC (in the experiment on Anabaena flos-aquae; in experiment [1]) were 3.1 µg/mL (≈ 10.7 µM) and 1.6 µg/mL (≈ 5.54 µM), respectively.

On to `CCOC(=O)COC(=O)c1cc(Oc2ccc(C(F)(F)F)cc2Cl)ccc1[N+](=O)[O-]` [4F comparative], for which the MIC in experiment [1] was 1 µg/mL (≈ 2.23 µM). `CC(=O)Oc1cccc(Oc2ccc(C(F)(F)F)cc2Cl)c1` [4B comparative]: the MIC against Anabaena flos-aquae was determined as 16 µg/mL (≈ 48.4 µM); in experiment [1] it was 8 µg/mL (≈ 24.2 µM). The matching figures for `O=[N+]([O-])c1ccc(Oc2ccc(C(F)(F)F)cc2Cl)cc1O` [4D comparative]: 12.5 µg/mL (≈ 37.5 µM) and 0.06 µg/mL (≈ 0.18 µM). The matching figures for `O=C(O)c1cc(Oc2ccc(C(F)(F)F)cc2Cl)ccc1[N+](=O)[O-]` [4E comparative]: over 50 µg/mL and 12.5 µg/mL (≈ 34.6 µM).
